This passage reports T/C results from PubChem BioAssay AID248 (DTP/NCI, 2004).

“And” between values parts separate entries of the source, which are not always exact repeats. Equal values may be shown once. Toxic doses and inconclusive results are not listed.

In this test the test system is L1210 leukemia ip in BDF1 mice, survival T/C. Briefly: NCI In Vivo Anticancer Drug Screen. Data for tumor model L1210 Leukemia (intraperitoneal) in B6D2F1 (BDF1) mice. The conditions noted are these: endpoint: mean survival time, higher = longer survival. Summed up:
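Survival endpoint. Drug-treated group vs vehicle group, expressed as T divided by C. Tumor passaged by transplantation.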

[1] abbreviates: dose: 100.0 mg/kg/injection, schedule: Q01DX009 (ip), vehicle: saline with Tween-80.
The mark [2] stands for this setting: dose: 100.0 mg/kg/injection, schedule: Q04DX003 (ip), vehicle: Klucel (hydroxypropylcellulose) (HPC).
The mark [3] stands for this setting: dose: 200.0 mg/kg/injection, schedule: Q01DX009 (ip), vehicle: saline with Tween-80.
Where [4] appears, read: dose: 200.0 mg/kg/injection, schedule: Q04DX003 (ip), vehicle: Klucel (hydroxypropylcellulose) (HPC).
Where [5] appears, read: dose: 400.0 mg/kg/injection, schedule: Q04DX003 (ip), vehicle: Klucel (hydroxypropylcellulose) (HPC).
Setting [6] is: dose: 12.5 mg/kg/injection, schedule: Q01DX009 (ip), vehicle: saline with Tween-80.
Setting [7] is: dose: 25.0 mg/kg/injection, schedule: Q01DX009 (ip), vehicle: saline with Tween-80.
Where [8] appears, read: dose: 50.0 mg/kg/injection, schedule: Q01DX009 (ip), vehicle: saline with Tween-80.
Setting [9] is: dose: 100.0 mg/kg/injection, schedule: Q04DX003 (ip), vehicle: alcohol.
Where [10] appears, read: dose: 200.0 mg/kg/injection, schedule: Q04DX003 (ip), vehicle: alcohol.
Setting [11] is: dose: 100.0 mg/kg/injection, schedule: Q01DX001 (ip), vehicle: saline.
[12] abbreviates: dose: 200.0 mg/kg/injection, schedule: Q01DX001 (ip), vehicle: saline.
Where [13] appears, read: dose: 400.0 mg/kg/injection, schedule: Q01DX001 (ip), vehicle: saline.
[14] abbreviates: dose: 100.0 mg/kg/injection, schedule: Q04DX003 (ip), vehicle: saline with Tween-80.
Where [15] appears, read: dose: 200.0 mg/kg/injection, schedule: Q04DX003 (ip), vehicle: saline with Tween-80.
The mark [16] stands for this setting: dose: 400.0 mg/kg/injection, schedule: Q04DX003 (ip), vehicle: saline with Tween-80.
Where [17] appears, read: dose: 100.0 mg/kg/injection, schedule: Q04DX003 (ip), vehicle: saline.
Setting [18] is: dose: 200.0 mg/kg/injection, schedule: Q04DX003 (ip), vehicle: saline.
The mark [19] stands for this setting: dose: 400.0 mg/kg/injection, schedule: Q04DX003 (ip), vehicle: saline.
Setting [20] is: dose: 100.0 mg/kg/injection, schedule: Q01DX001 (ip), vehicle: carboxymethylcellulose (CMC).

In the case of `COc1ccc(Br)cc1`, the T/C under setting [1] is 96 % of control; the T/C under setting [2] was 100 % of control; the T/C under setting [3] is 89 % of control; the T/C under setting [4] was 100 % of control; the T/C under setting [5] was 103 % of control.

For the molecule `[Ni+2].[O-]c1ccccc1C=Nc1ccccc1N=Cc1ccccc1[O-]`, the T/C under setting [6] was 93 % of control, the T/C under setting [7] is 93 % of control and the T/C under setting [8] is 93 % of control.

Regarding `Cc1ccc2ccccc2c1OC(C)C(=O)O` (centres undefined), the T/C runs as follows: under setting [8], 108 % of control; under setting [1], 95 % of control; under setting [9], 95 % of control; under setting [3], 113 % of control; under setting [10], 93 % of control.

Consider `Cc1cc(Cl)c(Cl)cc1NC(=O)C(Br)C(Br)C(=O)O` (centres undefined), for which the T/C by setting is: under setting [1], 97 % of control; under setting [3], 96 % of control.

As for `COc1ccc(C(=O)C2=CC(=O)C(=O)C2)cc1OC`, the T/C is, setting by setting: under setting [11], 98 % of control; under setting [12], 98 % of control; under setting [13], 94 % of control.

`CC(=O)Oc1cc(C)c(OC(C)=O)c(C)c1C`: the T/C under setting [7] is 108 % of control; the T/C (dose: 25.0 mg/kg/injection, schedule: Q04DX003 (ip), vehicle: saline with Tween-80) is 92 % of control; the T/C under setting [8] was 103 % of control; the T/C (dose: 50.0 mg/kg/injection, schedule: Q04DX003 (ip), vehicle: saline with Tween-80) was 94 % of control; the T/C under setting [1] was 96 % of control; the T/C under setting [14] is 100 % of control and 103 % of control.

As for `OC(c1ccccc1)c1ccccc1` (tested in a mixture with another compound), the T/C was 107 % of control (dose: 2.5 mg/kg/injection, schedule: Q01DX009 (ip), vehicle: acetone); 105 % of control (dose: 5.0 mg/kg/injection, schedule: Q01DX009 (ip), vehicle: acetone); 93 % of control (dose: 10.0 mg/kg/injection, schedule: Q01DX001 (ip), vehicle: saline); 98 % of control (dose: 10.0 mg/kg/injection, schedule: Q01DX009 (ip), vehicle: acetone); 88 % of control (dose: 20.0 mg/kg/injection, schedule: Q01DX001 (ip), vehicle: saline).

With `CNC1(c2ccccc2)CC2CCC(C2)C1O` (centres undefined), the T/C reads like this: under setting [11], 98 % of control; under setting [2], 101 % of control; under setting [12], 106 % of control; under setting [4], 104 % of control; under setting [13], 101 % of control; under setting [5], 108 % of control.

For `[N-]=[N+]=Nc1c2ccccc2nc2ccccc12`, the T/C (dose: 2.0 mg/kg/injection, schedule: Q01DX001 (ip), vehicle: saline) is 92 % of control; the T/C (dose: 4.0 mg/kg/injection, schedule: Q01DX001 (ip), vehicle: saline) was 94 % of control; the T/C (dose: 8.0 mg/kg/injection, schedule: Q01DX001 (ip), vehicle: saline) is 103 % of control.

`O=C(CNC(=O)OCc1ccccc1)NC(Cc1c[nH]c2ccccc12)C(=O)OCc1ccccc1` (centres undefined): the T/C runs as follows: under setting [14], 96 % of control; under setting [15], 100 % of control; under setting [16], 95 % of control.

`CC(O)(C(=O)O)c1ccc(Cl)c(Cl)c1` (centres undefined): the T/C by setting is: under setting [6], 93 % of control; under setting [7], 93 % of control; under setting [8], 89 % of control; under setting [3], 100 % of control.

In the case of `Nc1ncc(-c2ccc(CNc3ccc(C(=O)NC(CC(=O)O)CC(=O)O)cc3)cc2)c(N)n1`, the T/C runs as follows: (dose: 10.5 mg/kg/injection, schedule: Q01DX009 (ip), vehicle: saline) 122 % of control; (dose: 12.5 mg/kg/injection, schedule: Q01DX009 (ip), vehicle: saline) 114 % of control; (dose: 14.5 mg/kg/injection, schedule: Q01DX009 (ip), vehicle: saline) 116 % of control; (dose: 18.0 mg/kg/injection, schedule: Q01DX009 (ip), vehicle: saline) 114 % of control; (dose: 22.0 mg/kg/injection, schedule: Q01DX009 (ip), vehicle: saline) 116 % of control; (dose: 50.0 mg/kg/injection, schedule: Q01DX009 (ip), vehicle: saline) 165 % of control and 185 % of control. For the same molecule, the T/C by setting is: (dose: 66.0 mg/kg/injection, schedule: Q01DX001 (ip), vehicle: saline) 122 % of control; (dose: 75.0 mg/kg/injection, schedule: Q01DX001 (ip), vehicle: saline) 112 % of control and 119 % of control; (dose: 75.0 mg/kg/injection, schedule: Q01DX009 (ip), vehicle: saline) 107 % of control; (dose: 150.0 mg/kg/injection, schedule: Q01DX001 (ip), vehicle: saline) 115 % of control.

For `CN1CC(C(=O)NO)C=C2c3cccc4[nH]cc(c34)CC21` (centres undefined), the T/C by setting is: (dose: 50.0 mg/kg/injection, schedule: Q04DX003 (ip), vehicle: alcohol) 104 % of control; under setting [9], 101 % of control; under setting [10], 103 % of control.

As to `CCN(Cc1ccccc1)c1nnnn1-c1ccccc1`, the T/C was 96 % of control under setting [17], 103 % of control under setting [18] and 98 % of control under setting [19].

`Cc1ccc(S(=O)(=O)OC2C(C)C3C2S(=O)(=O)C3(C)C)cc1` (centres undefined): the T/C by setting is: under setting [14], 102 % of control; under setting [15], 104 % of control; under setting [16], 102 % of control.

As for `COc1ccc(COc2ccc(OC)cc2)cc1`, the T/C is, setting by setting: under setting [14], 95 % of control; under setting [15], 96 % of control; under setting [16], 98 % of control.

Regarding `O=[N+]([O-])c1ccc(OCCCOc2ccc(S(=O)(=O)F)cc2)cc1`, the T/C was 102 % of control under setting [17], 102 % of control under setting [18] and 106 % of control under setting [19].

As to `O=C(O)C(Br)C(Br)C(=O)Nc1cccc(C(F)(F)F)c1` (centres undefined), the T/C by setting is: (dose: 25.0 mg/kg/injection, schedule: Q01DX009 (ip), vehicle: Klucel (hydroxypropylcellulose) (HPC)) 96 % of control; (dose: 50.0 mg/kg/injection, schedule: Q01DX009 (ip), vehicle: Klucel (hydroxypropylcellulose) (HPC)) 96 % of control; (dose: 100.0 mg/kg/injection, schedule: Q01DX009 (ip), vehicle: Klucel (hydroxypropylcellulose) (HPC)) 103 % of control; (dose: 100.0 mg/kg/injection, schedule: Q01DX009 (ip), vehicle: other) 96 % of control.

Regarding `CCC(C)c1cccc(OP(=O)(CC(C)CC(C)(C)C)Oc2ccccc2C(C)CC)c1` (centres undefined), the T/C (dose: 50.0 mg/kg/injection, schedule: Q01DX001 (ip), vehicle: acetone) was 94 % of control; the T/C (dose: 100.0 mg/kg/injection, schedule: Q01DX001 (ip), vehicle: acetone) was 94 % of control; the T/C (dose: 200.0 mg/kg/injection, schedule: Q01DX001 (ip), vehicle: acetone) was 93 % of control.

Consider `C=CCc1c2c(ccc(=O)c1O)-c1c(cc(OC)c(OC)c1OC)CCC2NC(C)=O` (centres undefined), for which the T/C under setting [20] was 117 % of control; the T/C (dose: 177.6 mg/kg/injection, schedule: Q01DX001 (ip), vehicle: carboxymethylcellulose (CMC)) is 110 % of control and 119 % of control; the T/C (dose: 200.0 mg/kg/injection, schedule: Q01DX001 (ip), vehicle: carboxymethylcellulose (CMC)) is 117 % of control; the T/C (dose: 266.8 mg/kg/injection, schedule: Q01DX001 (ip), vehicle: carboxymethylcellulose (CMC)) is 95 % of control and 118 % of control.

For the molecule `c1cc[c]([Hg][S]c2nc3ccccc3s2)cc1`, the T/C is, setting by setting: (dose: 50.0 mg/kg/injection, schedule: Q01DX001 (ip), vehicle: carboxymethylcellulose (CMC)) 96 % of control; under setting [20], 108 % of control.

For `Cc1ccccc1C(=O)NCC(=O)O`, the T/C by setting is: under setting [1], 91 % of control; under setting [14], 95 % of control; under setting [3], 91 % of control; under setting [15], 94 % of control; (dose: 400.0 mg/kg/injection, schedule: Q01DX009 (ip), vehicle: saline with Tween-80) 86 % of control; under setting [16], 98 % of control.
